Reference: PMC3106419 (Bioconjugate chemistry, 2009)

Target: T1, human P2Y14 receptor (Homo sapiens, UniProt Q15391)
T1 sequence (Q15391 1-338): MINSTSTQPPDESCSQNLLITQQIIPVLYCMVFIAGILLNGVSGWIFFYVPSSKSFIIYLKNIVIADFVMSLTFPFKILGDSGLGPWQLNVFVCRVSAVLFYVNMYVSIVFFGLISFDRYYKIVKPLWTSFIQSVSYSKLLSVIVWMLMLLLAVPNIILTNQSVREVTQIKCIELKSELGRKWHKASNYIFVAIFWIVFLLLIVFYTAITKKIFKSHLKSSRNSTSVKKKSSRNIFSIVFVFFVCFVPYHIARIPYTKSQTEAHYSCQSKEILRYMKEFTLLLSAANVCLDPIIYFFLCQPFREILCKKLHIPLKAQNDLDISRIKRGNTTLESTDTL
Assay: Inhibition of forskolin-stimulated cyclic AMP accumulation in P2Y14-HEK293 cells
Assay type: cell-based
Conditions: for relative potency at the P2Y14 receptor: comparator named in the value; for fold more potent than monomer 3a: potency ratio vs ethylenediamine analogue 3a at hP2Y14 receptor; for fold more potent than native agonist UDPG 1: potency ratio vs compound 1 at hP2Y14 receptor

## O=C(O)[C@H]1O[C@H](OP(=O)(O)OP(=O)(O)OC[C@H]2O[C@@H](n3ccc(=O)[nH]c3=O)[C@H](O)[C@@H]2O)[C@H](O)[C@@H](O)[C@@H]1O [compound 2, uridine-5′-diphosphoglucuronic acid, reference compound]
  relative potency at the P2Y14 receptor: approximately equipotent to 1

## G2.5-(UDPGA-ethylenediamine)17.3 [compound 10]
  fold more potent than monomer 3a: more than 800 fold

## G3-(UDPGA)4.3 [compound 8]
  relative potency at the P2Y14 receptor: considerably less potent than 9, but similar in potency to 1

## G3-(UDPGA)20.1 [compound 9]
  fold more potent than native agonist UDPG 1: approximately 100 fold

## G3-(UDPGA)20.1-(AlexaFluor488)2.3 [compound 14]
  fold more potent than native agonist UDPG 1: 7 fold
Potency ratio vs compound 9 at hP2Y14 receptor
  fold less potent than conjugate 9: 17 fold

## G3-(UDPGA)20.1-(Biotin)4.9 [compound 13]
  relative potency at the P2Y14 receptor: essentially as potent as 9

## G3-(UDPGA)20.1-(DTPA)4.5 [compound 15]
  relative potency at the P2Y14 receptor: essentially as potent as 9

## G5.5-(UDPGA-ethylenediamine)29.9 [compound 11]
  fold more potent than monomer 3a: more than 800 fold

## G6-(UDPGA)147 [compound 12]
  relative potency at the P2Y14 receptor: significantly more potent than 9

## UDPGA-ethylenediamine [3a]
  relative potency at the P2Y14 receptor: considerably less potent
